Experiment [1] relates to H3396 human breast carcinoma. Description: In vitro cytotoxicity (alamarBlue) on H3396. Particulars: read-out: IC50 values. Type of experiment: cell-based. Here is the method: (§1) Table 6 summarizes cytotoxic activity of MMAF, 100, 103, 107 on H3396 human breast carcinoma and Karpas-299 anaplastic large cell lymphoma cell lines assayed. To evaluate the cytotoxicity of Compounds 100, 103, and 107, cells were seeded at approximately 10,000 per well in 150 μl of culture medium containing graded doses of Compounds 100, 103, and 107 in quadruplicates at the initiation of assay. Cytotoxicity assays were usually carried out for 96 hours. Fifty μl of the alamarBlue™ dye was added to each well during the last 4 to 6 hours of the incubation to assess viable cells at the end of culture. Dye reduction was determined by fluorescence spectrometry using the excitation and emission wavelengths of 535 nm and 590 nm, respectively. For analysis, the extent of alamarBlue™ reduction by the treated cells was compared to that of the untreated control cells.
On the technique in general: Alamar Blue is a resazurin reagent that responds to reducing activity.

In experiment [2] the test system is Karpas-299 anaplastic large cell lymphoma cell line (CD30+). In words: In vitro cytotoxicity (alamarBlue) on Karpas 299. Type of experiment: cell-based, human. On the procedure:
as §1

[3] abbreviates: karpas 299, 96 hours, alamarBlue, read-out: IC50 values.
[4] abbreviates: Homo sapiens, KARPAS-299, 96 h, read-out: IC50 values.

Where two headings read alike, the source gives them in different places. Non-standard residues stand in square brackets, D forms with d. Residues, ends and D or L forms follow the SMILES beside them. *: point of attachment. Dolaproine = CO[C@@H]([C@@H]1CCCN1)[C@@H](C)C(=O)O; Dil = CC[C@H](C)[C@H](NC)[C@@H](CC(=O)O)OC; X1 = C[C@@H](N*)[C@@H](O)c1ccccc1; NMeV = CN[C@H](C(=O)O)C(C)C

In general, IC50 refers to the point on the concentration scale where inhibition reaches its midpoint.

Consider `CC[C@H](C)[C@@H]([C@@H](CC(=O)N1CCC[C@H]1[C@H](OC)[C@@H](C)C(=O)N[C@@H](Cc1ccccc1)C(=O)O)OC)N(C)C(=O)[C@@H](NC(=O)[C@@H](NC)C(C)C)C(C)C` [MMAF, N-methylvaline-valine-dolaisoleuine-dolaproine-phenylalanine, reference compound] (H-[NMeV]V[Dil][Dolaproine]F-OH), for which the concentration for half-maximal inhibition (IC50) in experiment [1] (H3396, 96 hours, alamarBlue) came out at 104 nM; in experiment [2] (setting [3]), 130 nM. With “cAC10-vc-MMAF: cAC10 Conjugate with Val-Cit linker and MMAF, average 4 drugs per antibody [reference compound]”, in experiment [2] (cAC10 conjugates, all 4 drugs/Ab, CD30+ cell line Karpas 299), the IC50 is 0.75 ng/mL. For the compound `CC[C@H](C)[C@@H]([C@@H](CC(=O)N1CCC[C@H]1[C@H](OC)[C@@H](C)C(=O)N[C@H](C)[C@@H](O)c1ccccc1)OC)N(C)C(=O)[C@@H](NC(=O)[C@@H](NC)C(C)C)C(C)C` [MMAE, mono-methyl auristatin E, reference compound] (H-[NMeV]V[Dil][Dolaproine]-X1), the IC50 is 0.8 nM in experiment [1] (H3396, 96 hours, alamarBlue) and 0.13 nM in experiment [2] (setting [3]). In the case of `CC[C@H](C)[C@@H]([C@@H](CC(=O)N1CCC[C@H]1[C@H](OC)[C@@H](C)C(=O)N[C@@H](Cc1ccccc1)C(=O)OC)OC)N(C)C(=O)[C@@H](NC(=O)c1ccc(N)cc1)C(C)C` [Compound 107, 4-Abz-Val-Dil-Dap-Phe-OMe], the IC50 in experiment [1] (Homo sapiens, H3396, 96 h) amounted to 0.003 nM; in experiment [2] (setting [4]), 0.12 nM. Turning to `CC[C@H](C)[C@@H]([C@@H](CC(=O)N1CCC[C@H]1[C@H](OC)[C@@H](C)C(=O)N[C@@H](Cc1ccccc1)C(=O)OC(C)(C)C)OC)N(C)C(=O)[C@@H](NC(=O)c1ccc(N)cc1)C(C)C` [Compound 100, 4-Abz-Val-Dil-Dap-Phe-OtBu], the IC50 in experiment [1] (Homo sapiens, H3396, 96 h) stood at 17.8 nM; in experiment [2] (setting [4]) it was 1.8 nM. As for `CC[C@H](C)[C@@H]([C@@H](CC(=O)N1CCC[C@H]1[C@H](OC)[C@@H](C)C(=O)N[C@@H](Cc1ccccc1)C(=O)O)OC)N(C)C(=O)[C@@H](NC(=O)c1ccc(N)cc1)C(C)C` [Compound 103, 4-Abz-Val-Dil-Dap-Phe], the IC50 in experiment [1] (Homo sapiens, H3396, 96 h) was more than 100 nM; in experiment [2] (setting [4]), 43 nM.

The values are drawn from patent US8288352B2, “Auristatins having an aminobenzoic acid unit at the N terminus” (priority 2004, dated 2012).
